Key:
[1] = Adiabatic calorimetry
[2] = molar heat capacity at constant pressure; details: 101.33 kPa

CCCn1cc[n+](C)c1.N[C@@H](CCC(=O)O)C(=O)[O-]
Details | Glass transition temperature [°C]
[1] | -33

[2]
Details | molar heat capacity at constant pressure [J/K/mol]
86.07 K, Glass | 150.25
88.05 K, Glass | 152.63
90.01 K, Glass | 154.9
91.97 K, Glass | 157.5
93.95 K, Glass | 159.49
95.92 K, Glass | 162.14
97.89 K, Glass | 164.13
99.85 K, Glass | 166.66
102.59 K, Glass | 169.25
105.33 K, Glass | 173.04
107.28 K, Glass | 175.8
109.24 K, Glass | 177.98
111.23 K, Glass | 179.21
113.2 K, Glass | 181.07
115.14 K, Glass | 183.75
117.1 K, Glass | 185.58
119.09 K, Glass | 186.96
121.06 K, Glass | 188.82
123 K, Glass | 191.13
124.97 K, Glass | 193.29
126.97 K, Glass | 194.36
128.94 K, Glass | 196.26
130.9 K, Glass | 199.43
132.84 K, Glass | 200.78
134.79 K, Glass | 203.07
136.78 K, Glass | 204.43
138.75 K, Glass | 206.24
140.7 K, Glass | 207.69
142.65 K, Glass | 208.89
144.61 K, Glass | 211.05
146.6 K, Glass | 212.89
148.57 K, Glass | 215.15
150.53 K, Glass | 216.91
153.04 K, Glass | 219.16
155.56 K, Glass | 221.42
157.53 K, Glass | 223.77
159.49 K, Glass | 225.64
161.44 K, Glass | 227
163.38 K, Glass | 228.24
165.3 K, Glass | 230.3
167.27 K, Glass | 232.18
169.28 K, Glass | 234.1
171.28 K, Glass | 236.74
173.27 K, Glass | 237.97
175.25 K, Glass | 240.31
177.21 K, Glass | 242.87
179.17 K, Glass | 243.7
181.11 K, Glass | 245.51
183.05 K, Glass | 248.04
185.03 K, Glass | 250.2
187.05 K, Glass | 252.7
189.06 K, Glass | 255.28
191.06 K, Glass | 257.14
193.05 K, Glass | 259.68
195.03 K, Glass | 262.63
197.01 K, Glass | 264.18
198.97 K, Glass | 266.54
200.93 K, Glass | 268.59
203.31 K, Glass | 271.02
205.67 K, Glass | 273.69
207.65 K, Glass | 277.76
209.69 K, Glass | 281.69
211.73 K, Glass | 283.31
213.76 K, Glass | 284.6
215.8 K, Glass | 286.92
217.82 K, Glass | 290.11
219.85 K, Glass | 294.21
221.88 K, Glass | 296.62
223.91 K, Glass | 297.46
225.94 K, Glass | 299.66
227.97 K, Glass | 300.73
229.99 K, Glass | 302.48
231.96 K, Glass | 310.06
234 K, Glass | 323.45
236.07 K, Glass | 333.04
238.02 K, Glass | 358.09
239.86 K, Glass | 407.73
242.01 K, Glass | 462.82
244.24 K, Liquid | 471
246.18 K, Liquid | 472.35
248.12 K, Liquid | 473.61
250.04 K, Liquid | 475.54
251.97 K, Liquid | 476.41
253.9 K, Liquid | 477.37
255.89 K, Liquid | 478.45
257.87 K, Liquid | 480.19
259.86 K, Liquid | 481.42
261.91 K, Liquid | 483.73
263.96 K, Liquid | 485.28
266 K, Liquid | 486.86
268.04 K, Liquid | 487.89
270.07 K, Liquid | 489.67
272.09 K, Liquid | 491.51
274.12 K, Liquid | 493.23
276.13 K, Liquid | 495.7
278.15 K, Liquid | 497.67
280.16 K, Liquid | 498.94
282.16 K, Liquid | 501.05
284.17 K, Liquid | 503.38
286.16 K, Liquid | 505.39
288.12 K, Liquid | 507.35
290.06 K, Liquid | 509.26
292.08 K, Liquid | 511.23
294.05 K, Liquid | 513.1
296.01 K, Liquid | 514.91
297.97 K, Liquid | 516.83
299.93 K, Liquid | 518.67
301.88 K, Liquid | 520.07
303.82 K, Liquid | 521.96
305.77 K, Liquid | 523.25
307.7 K, Liquid | 524.77
309.64 K, Liquid | 526.25
311.57 K, Liquid | 527.31
313.5 K, Liquid | 528.82
315.43 K, Liquid | 530.52
317.41 K, Liquid | 531.97
319.47 K, Liquid | 533.47
321.52 K, Liquid | 534.99
323.57 K, Liquid | 536.53
325.61 K, Liquid | 538.93
327.65 K, Liquid | 539.74
329.68 K, Liquid | 541.83
331.71 K, Liquid | 543.17
333.73 K, Liquid | 544.98
335.75 K, Liquid | 546.87
337.76 K, Liquid | 549.25
339.77 K, Liquid | 550.76
341.77 K, Liquid | 553.01
343.77 K, Liquid | 554.52
345.76 K, Liquid | 557
347.75 K, Liquid | 559.26
349.74 K, Liquid | 561.22
351.73 K, Liquid | 563.15
353.72 K, Liquid | 565.12
355.7 K, Liquid | 566.91
357.68 K, Liquid | 568.06

— the NIST ThermoML archive (doi:10.1021/je100131c)
